Assay results taken from article PMC11061149, “Protein mimetic 2D FAST rescues alpha synuclein aggregation mediated early and post disease Parkinson’s phenotypes” (Nature Communications, 2024).

What was measured:
[1] = target: T1, 15N-labeled αS monomer (Homo sapiens, UniProt P37840); assay: 2D 1H-15N HSQC NMR of 15N-labeled αS with ligand; format: binding; details: 70 µM 15N-αS + equimolar ligand, V/V0
T1 construct: purchased rpeptide, Bogart, GA
Protocol: A solution of ^15N αS was prepared by resuspending 1 mg of uniformly labeled ^15N αS (rpeptide, Bogart, GA) in 1 mL Milli-Q water to yield a 70 μM αS solution in 20 mM Tris-HCl pH 7.4, 100 mM NaCl. The protein was buffer exchanged to Milli-Q water, lyophilized, and stored at –80 °C. For the preparation of NMR experiments, the lyophilized ^15N αS powder was dissolved in the NMR buffer (300 μL, 20 mM NaPO4 pH 6.4, 5% D2O, v/v) to make a final concentration of 70 μM. The protein concentration was confirmed with a NanoDrop One (Thermo Scientific, Waltham, MA) at 280 nm using an extinction coefficient of 5960 M^-1cm^-1. The solutions were transferred into Shigemi BMS-005 NMR tube (Shigemi, Tokyo, Japan) and the two-dimensional ^1H-^15N HSQC NMR experiments were performed on a 600 MHz Bruker Avance Neo (CU Anschutz, NMR core facility, CO) instrument equipped with a triple resonance HCN cryoprobe. Data was collected at 12 °C on Topspin 4.9.0 software (Bruker, Billerica, MA). The HSQC spectra were recorded using a data matrix consisting of 1024 (t2, ^1H) × 160 (t1, ^15N) complex points. Resonance assignments were determined utilizing a previous publication[83] and the data analysis was performed using MestReNova software.
For the HSQC experiments titrating NS132 into ^15N αS, the same experimental conditions were used as above. Incrementally, NS132 was added to a single ^15N αS solution, mixed, kept at r.t. for 10 min and HSQC was recorded under the conditions stated above. For HSQC experiments containing pre-formed fibrils (PFF) of αS, 5.4 eq. of PFF solution (500 μM) was added to monomeric ^15N αS solution, and the spectra was recorded as previously stated.

[2] = test system: HEK293 cells stably expressing αS-A53T-YFP; assay: ProteoStat dye assay, ligand pre-treatment, αS fibers templated intracellular aggregation; format: cell-based, human; details: ligand 10 µM for 16 h, washed, then 5 µM αS fibers for 24 h
Protocol: We further tested NS163 against intracellular αS aggregation using same HEK293 cells (express αS-A53T-YFP)[23],[24],[50]. In this assay, we added NS163 (10 µM) to the HEK cells and incubated the cells for 16 h, washed the cells and treated with the preformed fibers of αS (5 µM monomer) and incubated for an additional 24 h. The ProteoStat dye-based intensity of HEK cells treated with αS fibers was ~4 fold higher than the control (no fibers) (Supplementary Fig. 19). NS163 was a very potent antagonist as it was able to reduce the intracellular inclusions by 80% at 10 µM, measured using the ProteoStat dye-based assay (Supplementary Fig. 19). Under matched conditions, 10 µM NS132 was able to reduce the intracellular inclusions by 57% (Supplementary Fig. 19). The higher antagonist activity of NS163 than NS132 is likely due to the better cell permeability of the former. […] It is important to point out that our potent ligands (NS163 and NS132) were able to inhibit αS preformed fibers templated aggregation of both monomeric WT αS and A53T αS mutant. It has been shown that the WT αS fibers templated aggregation of WT αS and its mutants is predominantly dependent on the interaction of the fibers with the N-terminus of the monomeric WT αS and its mutants[62],[68],[69]. […]

Cc1ccc(NC(=O)c2ccc(NC(=O)c3ccc([N+](=O)[O-])c(NCCc4c[nH]c5ccccc45)n3)c(NCC3CCCCC3)n2)c(OCC(=O)O)n1 [NS132]
Change in volume of peaks, αS residue A11 [1]: 0.12 | Change in volume of peaks, αS residue A17 [1]: 0.33 | Change in volume of peaks, αS residue A18 [1]: 0.55 | Change in volume of peaks, αS residue A19 [1]: 0.15 | Change in volume of peaks, αS residue A56 [1]: 0.13 | Change in volume of peaks, αS residue A78 [1]: 0.03 | Change in volume of peaks, αS residue A89 [1]: 0.12 | Change in volume of peaks, αS residue A90 [1]: 0.08 | Change in volume of peaks, αS residue A107 [1]: 0.04 | Change in volume of peaks, αS residue E13 [1]: 0.05 | Change in volume of peaks, αS residue E20 [1]: 0.17 | Change in volume of peaks, αS residue E46 [1]: 0.14 | Change in volume of peaks, αS residue G14 [1]: 0.1 | Change in volume of peaks, αS residue G31 [1]: 0.08 | Change in volume of peaks, αS residue G36 [1]: 0.1 | Change in volume of peaks, αS residue G41 [1]: 0.31 | Change in volume of peaks, αS residue G68 [1]: 0.06 | Change in volume of peaks, αS residue G93 [1]: 0.04 | Change in volume of peaks, αS residue H50 [1]: 0.52 | Change in volume of peaks, αS residue K10 [1]: 0.12 | Change in volume of peaks, αS residue K12 [1]: 0.77 | Change in volume of peaks, αS residue K43 [1]: 0.42 | Change in volume of peaks, αS residue L38 [1]: 0.05 | Change in volume of peaks, αS residue L100 [1]: 0.09 | Change in volume of peaks, αS residue S42 [1]: 0.46 | Change in volume of peaks, αS residue S129 [1]: 0.14 | Change in volume of peaks, αS residue T22 [1]: 0.03 | Change in volume of peaks, αS residue T59 [1]: 0.26 | Change in volume of peaks, αS residue T64 [1]: 0.08 | Change in volume of peaks, αS residue T75 [1]: 0.22 | Change in volume of peaks, αS residue V3 [1]: 0.04 | Change in volume of peaks, αS residue V15 [1]: 0.61 | Change in volume of peaks, αS residue V16 [1]: 0.09 | Change in volume of peaks, αS residue V37 [1]: 0.08 | Change in volume of peaks, αS residue V40 [1]: 0.13 | Change in volume of peaks, αS residue V66 [1]: 0.04 | Change in volume of peaks, αS residue V77 [1]: 0.16 | Change in volume of peaks, αS residue V82 [1]: 0.09 | Change in volume of peaks, αS residue Y39 [1]: 0.21 | reduction of intracellular inclusions (ProteoStat) [2]: 57%
